Consider one sequence from patent US9657071B2, “IgE peptide vaccine” (NIPPON ZENYAKU KOGYO CO., LTD., priority 2012, dated 2017).

One assay deals with human IgE. As to the kind of experiment: Reactivity of serum of peptide-immunized rabbit with human IgE (ELISA). The assay is classed as in vivo. To be noted: 500 μg peptide + complete adjuvant s.c. The protocol:
2 mL of the 250 μg/mL peptide (a total of 500 μg) used in Example 2 was mixed with an equal amount of a complete adjuvant (a total of 4 mL). Each rabbit was immunized with this mixture by the subcutaneous administration (amount of the peptide: 500 μg) at day 0 and weeks 2, 4, 6, and 8. Blood was collected 5 weeks after the week-8 administration (week 13 counted from day 0). Booster immunization was performed at week 14 counted from day 0, and blood was further collected 2 weeks thereafter (week 16 counted from day 0). Antibody titers in the collected blood were measured by ELISA. The serum of a rabbit that received no peptide was used as a control.
ELISA was performed by the following method: each […] recombinant CH3 solution of dog IgE, human IgE, mouse IgE, dog IgG, and cat IgE was immobilized at a concentration of 100 μL/well (100 ng/well) to a plate. The serum collected from the immunized rabbit was used (×200 to ×102400) as a primary antibody. An enzyme-labeled anti-rabbit IgG antibody (Zymed Laboratories Inc.) was used as a secondary antibody.

The subject of assay [1] is Dog subjected to P-K test. As to the kind of experiment: Prausnitz-Kustner (P-K) test. The assay is classed as in vivo. To be noted: conclusion of P-K test. The protocol:
The P-K test refers to a method for qualitatively evaluating antigen-specific IgE in test serum and employs additional antigen-unsensitized individuals. The test is summarized as follows:
1) Antigen-unsensitized animals are prepared as animals subjected to the P-K test.
2) Test serum or serum of a healthy animal (control) is intracutaneously administered to the animals subjected to the P-K test. When antigen-specific IgE is present in the test serum, the IgE binds to the surface of mast cells in the skins of the animals subjected to the P-K test within 48 hours after the administration.
3) 48 hours after the serum administration, an antigen solution is intracutaneously administered to the same sites as above. When antigen-specific IgE is present in the test serum, the antigen binds to the antigen-specific IgE bound with the surface of mast cells to form IgE cross-linking. This triggers the degranulation of the mast cells, resulting in flare confirmed in the skins.
The administration group and the non-administration group differed most largely in their serum Der f 2-specific IgE concentrations at day 77 (7 days after the second sensitization) when the effects of the test substance were thus confirmed to be maximized. […]

In the case of “QEKKTSVSASQWYTKHHNNATTSIT (listed as Mus musculus) [MOUSE CH3-4-17-11]”, the “response of immobilized human IgE to peptide-administered rabbit serum” value in the assay with human IgE is reported as “responded”. Further, the “effect of vaccine-induced IgG on binding of IgE to mast cells” value in assay [1] is “blocks the binding of the IgE to mast cells”.
